Legend:
human parathyroid cells [1] = test: Measurement of PTH secretion from human parathyroid cells (radioimmunoassay); format: cell-based; settings: human (adenoma) parathyroid cells; at concentrations that caused the mobilization of intracellular Ca2+
Method: Cells were suspended in PCB containing 0.5 mM CaCl2 and 0.1% BSA.
For human cells, a commercially available radioimmunoassay kit (INS-PTH; Nichols Institute, Los Angeles, CA) which recognizes intact and N-terminal human PTH was used because GW-1 antibody recognizes human PTH poorly.

[2] = Net positive charge of the molecule; format: physicochemical; settings: at physiological pH (pH 7.3)
Ca^2+ receptor [3] = target: T1, Ca^2+ receptor (Homo sapiens, UniProt P41180); test: Cl- current in Xenopus oocytes injected with human parathyroid cell mRNA; format: cell-based
T1 construct: Oocytes were injected with poly(A)^+-enriched mRNA from human parathyroid tissue; expressed in transfected cells; host or cells: Xenopus laevis oocytes injected with poly(A)+ mRNA from human hyperplastic parathyroid glands (secondary HPT)
T1 sequence (P41180 20-1078): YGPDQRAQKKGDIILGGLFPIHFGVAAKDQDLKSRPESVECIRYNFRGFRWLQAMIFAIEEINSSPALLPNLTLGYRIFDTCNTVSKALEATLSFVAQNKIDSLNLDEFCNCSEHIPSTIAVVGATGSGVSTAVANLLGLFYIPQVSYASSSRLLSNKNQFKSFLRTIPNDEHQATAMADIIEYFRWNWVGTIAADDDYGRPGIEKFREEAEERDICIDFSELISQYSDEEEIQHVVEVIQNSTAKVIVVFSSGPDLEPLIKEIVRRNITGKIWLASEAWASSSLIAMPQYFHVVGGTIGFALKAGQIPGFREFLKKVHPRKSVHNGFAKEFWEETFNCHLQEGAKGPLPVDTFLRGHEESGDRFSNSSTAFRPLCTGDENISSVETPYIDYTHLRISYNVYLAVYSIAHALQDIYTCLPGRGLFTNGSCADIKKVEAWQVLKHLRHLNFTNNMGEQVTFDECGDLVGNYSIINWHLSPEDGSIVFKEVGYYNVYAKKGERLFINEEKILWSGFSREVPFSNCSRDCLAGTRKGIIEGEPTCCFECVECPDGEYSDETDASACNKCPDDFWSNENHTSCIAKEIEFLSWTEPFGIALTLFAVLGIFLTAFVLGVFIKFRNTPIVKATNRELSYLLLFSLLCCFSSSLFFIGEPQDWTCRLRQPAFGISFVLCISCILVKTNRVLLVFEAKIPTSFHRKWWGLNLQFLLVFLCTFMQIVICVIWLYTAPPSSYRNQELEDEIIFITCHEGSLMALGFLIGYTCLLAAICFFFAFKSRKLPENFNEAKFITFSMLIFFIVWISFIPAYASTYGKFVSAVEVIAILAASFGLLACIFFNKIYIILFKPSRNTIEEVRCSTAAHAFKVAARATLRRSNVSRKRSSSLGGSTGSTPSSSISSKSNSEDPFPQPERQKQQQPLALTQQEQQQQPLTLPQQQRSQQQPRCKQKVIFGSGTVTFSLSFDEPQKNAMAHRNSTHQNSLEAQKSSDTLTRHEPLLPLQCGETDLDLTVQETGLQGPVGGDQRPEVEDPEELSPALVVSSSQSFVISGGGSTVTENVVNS

Ca^2+ receptor [4] = target: T2, Ca^2+ receptor (Bos taurus, UniProt P35384); test: 45Ca2+ release from Xenopus oocytes injected with bovine parathyroid mRNA; format: cell-based; settings: 10 mM for 20 min; compared to mock challenge with buffer
T2 construct: oocytes were injected with bovine parathyroid mRNA or water; expressed in transfected cells; host or cells: Xenopus laevis oocytes injected with poly(A)+ mRNA from bovine (calf) parathyroid glands
T2 sequence (P35384 20-1085): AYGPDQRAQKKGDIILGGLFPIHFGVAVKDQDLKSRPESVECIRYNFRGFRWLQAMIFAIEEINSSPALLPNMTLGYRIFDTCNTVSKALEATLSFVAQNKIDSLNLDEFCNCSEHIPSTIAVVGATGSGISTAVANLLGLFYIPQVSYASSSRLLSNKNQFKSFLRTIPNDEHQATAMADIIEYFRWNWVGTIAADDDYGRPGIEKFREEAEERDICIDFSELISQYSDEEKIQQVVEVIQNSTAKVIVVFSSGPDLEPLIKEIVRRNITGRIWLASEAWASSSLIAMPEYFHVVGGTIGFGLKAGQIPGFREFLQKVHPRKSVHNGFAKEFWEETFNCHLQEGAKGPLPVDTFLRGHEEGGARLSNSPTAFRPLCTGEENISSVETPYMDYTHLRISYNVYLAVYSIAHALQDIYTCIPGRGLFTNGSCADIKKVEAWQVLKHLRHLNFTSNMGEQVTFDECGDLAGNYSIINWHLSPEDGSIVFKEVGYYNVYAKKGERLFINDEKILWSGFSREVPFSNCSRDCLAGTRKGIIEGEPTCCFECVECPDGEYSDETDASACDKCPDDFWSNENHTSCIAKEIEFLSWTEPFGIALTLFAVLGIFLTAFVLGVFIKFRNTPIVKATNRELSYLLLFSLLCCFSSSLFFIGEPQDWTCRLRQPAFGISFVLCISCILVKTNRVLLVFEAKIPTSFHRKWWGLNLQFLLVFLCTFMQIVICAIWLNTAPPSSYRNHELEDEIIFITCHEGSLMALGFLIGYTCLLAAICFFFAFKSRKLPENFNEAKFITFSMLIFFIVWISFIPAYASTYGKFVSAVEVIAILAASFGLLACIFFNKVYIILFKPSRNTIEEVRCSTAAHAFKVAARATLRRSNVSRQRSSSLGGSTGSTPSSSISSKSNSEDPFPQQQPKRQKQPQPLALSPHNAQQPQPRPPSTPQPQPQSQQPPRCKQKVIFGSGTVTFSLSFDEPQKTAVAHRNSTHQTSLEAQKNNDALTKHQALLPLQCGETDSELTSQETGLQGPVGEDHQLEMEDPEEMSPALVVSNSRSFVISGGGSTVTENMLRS
Description: Prior to being stimulated, oocytes were loaded with ^45Ca^2+.

rat osteoclasts = test: Measurement of [Ca2+]i in single rat osteoclasts (indo-1); format: cell-based
[5] = target: T3, bovine parathyroid Ca^2+-receptor (Bos taurus, UniProt P35384); test: Cl- current in Xenopus oocytes expressing the cloned receptor (BoPCaR 1); format: cell-based
T3 construct: expressed in transfected cells; host or cells: Xenopus laevis oocytes injected with cRNA from the BoPCaR 1 cDNA (plasmid pSPORT1, ATCC 75416)
T3 sequence (P35384 20-1085): T2 sequence (P35384 20-1085)
Description: An expression cloning strategy using Xenopus laevis oocytes was used to identify the cDNA encoding the bovine parathyroid calcium receptor. These techniques are described only briefly here, and a more complete description preceded this one in the sections describing techniques which may be used to clone additional forms of the Ca^2+-receptor from other cell types. Poly(A^+)-enriched RNA was initially prepared from bovine parathyroid glands using extraction with guanidinium thiocyanate, centrifugation through CsCl and oligo(dT) cellulose chromatography. […] No such currents were elicited in control eggs injected with water. […] The mRNA was then subjected to size fractionation, utilizing preparative, continuous flow agarose gel electrophoresis (Hediger, M.A., Anal. Biochem. 159:280-286 (1986)) to obtain fractions of poly(A^+)-RNA further enriched in transcripts coding for the Ca^2+-receptor. […] A plasmid containing the BoPCaR 1 […] (See plasmid, Figure 45; restriction map, Figure 46; and partial nucleotide sequence, Figure 47) has been deposited in the ATCC under deposit number ATCC 75416.
Several pharmacological and biochemical criteria were used to identify this clone as encoding a bona fide bovine parathyroid Ca^2+-receptor. […] These responses increased markedly over a period of one (1) to four (4) days after injection of the eggs with cRNA prepared from the BoPCaR 1 cDNA. […]

rMTC 6-23 cells = test: Measurement of cytosolic Ca2+ in C-cells (fura-2); format: cell-based, rat
human parathyroid cells [6] = test: Measurement of [Ca2+]i (fura-2) in human parathyroid cells; format: cell-based; settings: 20 µM
[7] = polymers of 1000 amino acids; cited from earlier work

Compound: NC[C@@H]1O[C@H](O[C@H]2[C@@H](O)[C@H](O[C@@H]3[C@@H](O)[C@H](N)C[C@H](N)[C@H]3O[C@H]3O[C@H](CN)[C@@H](O)[C@H](O)[C@H]3N)O[C@@H]2CO)[C@H](N)[C@@H](O)[C@@H]1O [neomycin B]
- inhibition of PTH secretion (human parathyroid cells [1]): inhibited PTH secretion from human parathyroid cells
- Net (+) Charge [2]: +6
- change in current in water-injected oocytes (Ca^2+ receptor [3]; 10 mM, five water-injected oocytes (specificity control)): failed to cause any change in the current
- increase in ^45Ca^2+ release (Ca^2+ receptor [4]): 76%
- EC50 (C-CELL) (rMTC 6-23 cells; rMTC 6-23 cells, fura-2, "inactive" = no increase in cytosolic Ca2+ at 1 mM or 1-5 mM (footnote)): inactive
- effect on basal [Ca^2+]i (rMTC 6-23 cells; spermine 10 mM, neomycin B 5 mM): without effect
- increase in [Ca^2+]i (human parathyroid cells [6]): evoked a large increase in [Ca^2+]i

Compound: polylysine
- Kd [7]: 0.5 nM
